Data on 28 compounds can be found in patent US20150232509A1, “SPIRO RING COMPOUNDS AS HEPATITIS C VIRUS (HCV) INHIBITORS” (SUNSHINE LAKE PHARMA CO., LTD., priority 2012, published 2015).

The subject of one test is HCV GT1b replicon cells. The test can be described thus: HCV Replicon assay, GT1b replicon cells (Luciferase / NEO qPCR). Type of test: cell-based. To be noted: Hepatitis C virus, 72 hours incubation, read-out: EC50 against HCV 1b genotype. As for the experimental part: (§1) An HCV Replicon assay was utilized in the present invention, and was prepared, developed and validated as described in Science, 1999, 285 (5424), 110-3 and J. Virol., 2003, 77 (5), 3007-19.
(§2) HCV GT1a, GT1b and GT2a replicon cells were used to test the currently described compound series as well as wild-type cells HCV 1b and resistant cells Y93H, L31F, P32L and 1302V. […]
(§3) The GT1a cells and GT1b cells were seeded into 96-well plates (8,000 cells in 125 μL/well) respectively; each compound was diluted to desired concentration using 5-fold serial dilutions protocol, 10 doses in duplicate, and added to wells with POD™ 810 Plate Assembler. The final concentration of DMSO was 0.5%; the plates were incubated in a CO2 incubator for 72 hours; after that, 40 μL of Luciferase assay substrate (Promega Bright-Glo) was added to each well, and detected by a chemiluminescence detection system (Topcount Microplate Scintillation and Luminescence Counter) 5 minutes later; data analysis.
(§4) The GT1a cells and GT1b cells were seeded into 96-well plates (8,000 cells in 125 μL/well) respectively; each compound was diluted to desired concentration using 5-fold serial dilutions protocol, 10 doses in duplicate, and added to wells with POD™ 810 Plate Assembler., the final concentration of DMSO was 0.5%; the cells were incubated in a CO2 incubator for 72 hours; quantitative PCR. • Sample preparation: the supernatant was removed, 100 μL of FCW buffer solution was added to each well, washed carefully and discarded the solution; 50 μL of lysate FCP was added to each well, the cells was lysed as PCR template and PCR template was diluted with DEPC water as sample template. • Quantitative PCR: preparation of reaction mixture according to PCR system; the reaction mixture was dispensed into a 384-well PCR reaction plate (specially for quantitative); and a standard template which was diluted in proportion was distributed into the plate; and the sample template was distributed into the plate; then the 384-well plate was sealed with closure plate membrane; the […] PCR machine was operated by procedures; data analysis. 3. Data Processing: the EC50 Values of Compounds were Analyzed by GraphPad Prism Software.
In general terms: A replicon is a self-replicating genome or part of one, used to study replication in cells.

The next test concerns HCV GT1a replicon cells. The test can be described thus: HCV Replicon assay, GT1a replicon cells (Luciferase / NEO qPCR). The class given is cell-based. To be noted: Hepatitis C virus, 72 hours incubation, read-out: EC50 against HCV 1a genotype. As for the experimental part:
as §1, §2, §3, §4

pEC50: −log10 of the molar value.

The pEC50 is the negative decadic logarithm of the EC50, by convention in mol/L. On to `COC(=O)N[C@H](C(=O)N1C[C@@H](C)C[C@H]1c1ncc(-c2ccc(-c3ccc(-c4cnc([C@@H]5C[C@H](C)CN5C(=O)[C@@H](NC(=O)OC)C(C)C)[nH]4)c4c3C3(CCCC3)CC4)cc2)[nH]1)C(C)C` [Example 14], for which the pEC50 in the test on HCV GT1b replicon cells was 10.96; in the test on HCV GT1a replicon cells, 9.11.
Turning to `COC(=O)N[C@H](C(=O)N1CCC[C@H]1c1ncc(-c2ccc(-c3ccc(-c4cnc([C@@H]5CC6(CN5C(=O)[C@@H](NC(=O)OC)C(C)C)OCCO6)[nH]4)c4c3C3(CCCC3)CC4)cc2)[nH]1)C(C)C` [Example 31], the negative-log EC50 (pEC50) in the test on HCV GT1b replicon cells is 10.32; in the test with HCV GT1a replicon cells it was 8.33.
On to `COC(=O)N[C@H](C(=O)N1C2CCC(C2)[C@H]1c1ncc(-c2ccc(-c3ccc(-c4ccc5nc([C@@H]6C7CCC(C7)N6C(=O)[C@@H](NC(=O)OC)C(C)C)[nH]c5c4)c4c3C3(CCCC3)CC4)cc2)[nH]1)C(C)C` (some centres unmarked) [Example 33], for which the pEC50 with HCV GT1b replicon cells was 10.41; in the test with HCV GT1a replicon cells it was 10.05.
Turning to `COC(=O)N[C@H](C(=O)N1CCC[C@H]1c1ncc(-c2ccc(-c3ccc(-c4ccc5[nH]c([C@@H]6CCCN6C(=O)[C@@H](NC(=O)OC)C(C)C)nc5c4)c4c3C3(CCCC3)CC4)cc2)[nH]1)C(C)C` [Example 3], the pEC50 is 10.49 in the test with HCV GT1b replicon cells and 10.01 with HCV GT1a replicon cells.
On the same counts, the results for `COC(=O)N[C@H](C(=O)N1CCC[C@H]1c1ncc(-c2ccc(-c3ccc(-c4ccc5nc([C@@H]6CCCN6C(=O)[C@@H](NC(=O)OC)c6ccccc6)[nH]c5c4)c4c3C3(CCCC3)CC4)cc2)[nH]1)c1ccccc1` [Example 19] are 10.96 and 9.42.
Regarding `COC(=O)N[C@H](C(=O)N1CCC[C@H]1c1ncc(-c2ccc(-c3ccc(-c4cnc([C@@H]5CCCN5C(=O)[C@@H](NC(=O)OC)C(C)C)[nH]4)c4c3C3(CCOC3)CC4)cc2)[nH]1)C(C)C` (some centres unmarked) [Example 52], the pEC50 in the test on HCV GT1b replicon cells is 10.48; in the test with HCV GT1a replicon cells it was 8.44.
On the same counts, the results for `COC(=O)NC(C(=O)N1CCCC1c1nc(-c2ccc(-c3ccc(-c4c[nH]c(C5CCCN5C(=O)C(NC(=O)OC)C(C)C)n4)c4c3C3(CCCC3)CC4)cc2)c[nH]1)C(C)C` (centres unmarked) [Example 54] are 10.36 and 8.45.
`COC(=O)N[C@H](C(=O)N1CC2(CC2)C[C@H]1c1ncc(-c2ccc(-c3ccc(-c4ccc(-c5cnc([C@@H]6CC7(CC7)CN6C(=O)[C@@H](NC(=O)OC)C(C)C)[nH]5)cc4)c4c3CCC43CCCC3)cc2)[nH]1)C(C)C` [Example 22]: the values for the pEC50 with HCV GT1b replicon cells and in the test with HCV GT1a replicon cells were 9.06 and 8.44, respectively.
Take `COC(=O)N[C@H](C(=O)N1C[C@@H](F)C[C@H]1c1ncc(-c2ccc(-c3ccc(-c4cnc([C@@H]5C[C@H](F)CN5C(=O)[C@@H](NC(=O)OC)C(C)C)[nH]4)c4c3C3(CCCC3)CC4)cc2)[nH]1)C(C)C` [Example 17]: the pEC50 in the test with HCV GT1b replicon cells was 10.14; in the test with HCV GT1a replicon cells, 9.32.
For the compound `COC(=O)N[C@H](C(=O)N1CC(F)(F)C[C@H]1c1nc(-c2ccc(-c3ccc(-c4cnc([C@@H]5CC(F)(F)CN5C(=O)[C@@H](NC(=O)OC)C(C)C)[nH]4)c4c3C3(CCOCC3)CC4)cc2)c[nH]1)C(C)C` [Example 42], the pEC50 in the test on HCV GT1b replicon cells was 9.96; with HCV GT1a replicon cells it was 8.16.
On the same counts, the results for `COC(=O)N[C@H](C(=O)N1CCC[C@H]1c1ncc(-c2ccc(-c3ccc(-c4cnc([C@@H]5CCCN5C(=O)[C@@H](NC(=O)OC)C(C)C)[nH]4)c4c3CCC43CCCC3)cc2)[nH]1)C(C)C` [Example 5] are 10.07 and 8.60.
Regarding `COC(=O)N[C@H](C(=O)N1CCC[C@H]1c1ncc(-c2ccc(-c3ccc(-c4ccc5nc([C@@H]6CCCN6C(=O)[C@@H](NC(=O)OC)C(C)C)[nH]c5c4)c4c3CCC43CCCC3)c3ccccc23)[nH]1)C(C)C` [Example 37], the pEC50 is 10.00 in the test with HCV GT1b replicon cells and 8.42 in the test on HCV GT1a replicon cells.
Turning to `COC(=O)N[C@H](C(=O)N1CCC[C@H]1c1ncc(-c2ccc(-c3ccc(-c4ccc5nc([C@@H]6CCCN6C(=O)[C@@H](NC(=O)OC)C(C)C)[nH]c5c4)c4c3CCC43CCCC3)c3cnoc23)[nH]1)C(C)C` [Example 46], the pEC50 in the test with HCV GT1b replicon cells is 9.93; in the test with HCV GT1a replicon cells it was 9.41.
Consider `COC(=O)N[C@H](C(=O)N1CCC[C@H]1C1=Nc2ccc(-c3cnc(-c4ccc(-c5cnc([C@@H]6CCCN6C(=O)[C@@H](NC(=O)OC)C(C)C)[nH]5)cc4)c4c3CCC43CCCC3)cc2S(=O)(=O)N1)C(C)C` [Example 39], for which the pEC50 in the test with HCV GT1b replicon cells is 10.70; in the test on HCV GT1a replicon cells, 10.57.
As for `COC(=O)N[C@H](C(=O)N1C[C@@H](C)C[C@H]1c1nc(-c2ccc(-c3ccc(-c4ccc(-c5c[nH]c([C@@H]6C[C@H](C)CN6C(=O)[C@@H](NC(=O)OC)C(C)C)n5)cc4)c4c3CCC43CCCC3)cc2)c[nH]1)C(C)C` [Example 21], the pEC50 in the test on HCV GT1b replicon cells is 9.01; in the test with HCV GT1a replicon cells, 8.31.
Take `COC(=O)N[C@H](C(=O)N1CCC[C@H]1c1ncc(-c2ccc(-c3ccc(-c4cnc([C@@H]5CCCN5C(=O)[C@@H](NC(=O)OC)C(C)C)[nH]4)c4c3C3(CCCN3C)CC4)cc2)[nH]1)C(C)C` (some centres unmarked) [Example 49]: the pEC50 in the test with HCV GT1b replicon cells was 9.45; with HCV GT1a replicon cells it was 7.63.
For `COC(=O)N[C@H](C(=O)N1CCC[C@H]1c1ncc(-c2ccc(-c3ccc(-c4cnc([C@@H]5CCCN5C(=O)[C@@H](NC(=O)OC)c5ccccc5)[nH]4)c4c3C3(CC4)CCN(C)CC3)cc2)[nH]1)c1ccccc1` [Example 43], the pEC50 in the test with HCV GT1b replicon cells is 9.83; with HCV GT1a replicon cells, 8.14.
For `COC(=O)N[C@H](C(=O)N1C2CC2C[C@H]1c1ncc(-c2ccc(-c3ccc(-c4ccc5nc([C@@H]6CC7CC7N6C(=O)[C@@H](NC(=O)OC)C(C)C)[nH]c5c4)c4c3C3(CCCC3)CC4)cc2)[nH]1)C(C)C` (some centres unmarked) [Example 32], the pEC50 with HCV GT1b replicon cells was 10.11; with HCV GT1a replicon cells, 10.19.
Consider `COC(=O)N[C@H](C(=O)N1CCC[C@H]1c1ncc(-c2ccc(-c3ccc(-c4cnc([C@@H]5CCCN5C(=O)[C@@H](NC(=O)OC)C(C)C)[nH]4)c4c3C3(CCC4)CCN(C)C3)cc2)[nH]1)C(C)C` (some centres unmarked) [Example 50], for which the pEC50 in the test on HCV GT1b replicon cells was 10.02; with HCV GT1a replicon cells, 9.06.
`CC(C)[C@H](NC(=O)OC(C)(C)C)C(=O)N1CCC[C@H]1c1ncc(-c2ccc(C3CCC(c4cnc([C@@H]5CCCN5C(=O)[C@@H](NC(=O)OC(C)(C)C)C(C)C)[nH]4)CC3)c3c2CCC32CCCC2)[nH]1` (some centres unmarked) [Example 10]: the pEC50 is 8.46 in the test on HCV GT1b replicon cells and 8.01 in the test on HCV GT1a replicon cells.
The matching figures for `CNC(=O)N[C@H](C(=O)N1C2CC2C[C@H]1c1nc2ccc(-c3ccc(-c4ccc(-c5cnc([C@@H]6CCCN6C(=O)[C@@H](NC(=O)OC)C(C)C)[nH]5)cc4)c4c3C3(CCCC3)CC4)cc2[nH]1)C(C)C` (some centres unmarked) [Example 11]: 10.02 and 9.35.
Take `COC(=O)NC(C(=O)N1CCCC1c1nc2cc(-c3ccc(-c4ccc5[nH]c(C6CCCN6C(=O)C(NC(=O)OC)C(C)C)nc5c4)c4c3CCC43CCCC3)ccc2[nH]1)C(C)C` (centres unmarked) [Example 53]: the pEC50 in the test on HCV GT1b replicon cells was 10.13; in the test with HCV GT1a replicon cells, 9.58.
With `CCC(C)[C@H](NC(=O)OC)C(=O)N1CCC[C@H]1c1nc2ccc(-c3ccc(-c4ccc(-c5cnc([C@@H]6CCCN6C(=O)[C@@H](NC(=O)OC)C(C)C)[nH]5)cc4)c4c3CCC43CCCC3)cc2[nH]1` (some centres unmarked) [Example 9], the pEC50 in the test with HCV GT1b replicon cells is 10.49; in the test on HCV GT1a replicon cells, 10.01.
On to `COC(=O)N[C@H](C(=O)N1CCC[C@H]1c1ncc(-c2ccc3cc(-c4ccc(-c5cnc([C@@H]6CCCN6C(=O)[C@@H](NC(=O)OC)C(C)C)[nH]5)c5c4C4(CCCC4)CC5)ccc3c2)[nH]1)C(C)C` [Example 30], for which the pEC50 was 10.13 in the test on HCV GT1b replicon cells and 8.49 with HCV GT1a replicon cells.
Regarding `CC(C)[C@H](NC(=O)N1CCOCC1)C(=O)N1CCC[C@H]1c1ncc(-c2ccc(N3CCC(c4cnc([C@@H]5CCCN5C(=O)[C@@H](NC(=O)N5CCOCC5)C(C)C)[nH]4)CC3)c3c2CCC32CCCC2)[nH]1` [Example 8], the pEC50 in the test with HCV GT1b replicon cells was 8.88; with HCV GT1a replicon cells, 8.26.
As for `CCC(C)[C@H](NC(=O)OC)C(=O)N1C2CC2C[C@H]1c1ncc(-c2ccc(-c3ccc(-c4ccc(-c5cnc([C@@H]6CC7CC7N6C(=O)[C@@H](NC(=O)OC)C(C)CC)[nH]5)cc4)c4c3CCC43CCCC3)cc2)[nH]1` (some centres unmarked) [Example 24], the negative logarithm of the EC50 (pEC50) with HCV GT1b replicon cells is 10.26; in the test on HCV GT1a replicon cells, 8.57.
Consider `COC(=O)N[C@H](C(=O)N1CC(C)=C[C@H]1c1ncc(-c2ccc(-c3ccc(-c4cnc([C@@H]5C=C(C)CN5C(=O)[C@@H](NC(=O)OC)C(C)C)[nH]4)c4c3C3(CCCC3)CC4)cc2)[nH]1)C(C)C` [Example 35], for which the pEC50 with HCV GT1b replicon cells was 10.07; with HCV GT1a replicon cells, 9.29.
For the compound `COC(=O)N[C@H](C(=O)N1CCC[C@H]1c1ncc(-c2ccc(-c3ccc(-c4cnc([C@@H]5CCCN5C(=O)[C@@H](NC(=O)OC)C5CCCCC5)[nH]4)c4c3C3(CCCC3)CC4)cc2)[nH]1)C1CCCCC1` [Example 15], the values for the pEC50 in the test with HCV GT1b replicon cells and in the test on HCV GT1a replicon cells were 10.54 and 9.05, respectively.
